Data published in patent US20150274661A1, “INDOL-AMIDE COMPOUNDS AS BETA-AMYLOID INHBITORS” (Hoffmann-La Roche Inc., priority 2012, published 2015).

Test system: Aβ42 secretion
Test: Cellular γ-secretase assay (inhibition of Aβ42 secretion)
Assay type: cell-based
Settings: Homo sapiens, 22 h, human neuroglioma H4 cells overexpressing human APP, 22 hours incubation
Protocol: Cellular γ-Secretase Assay
The compounds were investigated in accordance with the test given hereinafter.
Human neuroglioma H4 cells overexpressing human APP were plated at 30,000 cells/well/200 μL in 96-well plates in IMDM media containing 10% FCS, […] Hygromycin B and incubated for 2 hours at 37° C., 5% CO2 prior to adding test compounds.
Compounds for testing were dissolved in 100% Me2SO yielding in a 10 mM stock solution. Typically 12 μL of these solutions were further diluted in 1000 μL of IMDM media (w/o FCS). Subsequent 1:1 dilutions gave a ten point dose response curve. 100 μL of each dilution was added to the cells in 96-well plates. Appropriate controls using vehicle only and reference compound were applied to this assay. The final concentration of Me2SO was 0.4%.
After incubation for 22 hours at 37° C., 5% CO2, 50 μL supernatant was transferred into round-bottom 96-well polypropylene plates for detection of Aβ42. 50 μL assay buffer (50 mM Tris/Cl, pH 7.4, 60 mM NaCl, 0.5% BSA, 1% TWEEN 20) was added to the wells followed by the addition of 100 μL of detection antibody (ruthenylated BAP15 0.0625 μg/mL in assay buffer). 50 μL of a premix of capture antibody (biotinylated 6E10 antibody, 1 μg/mL) and Streptavidin-coated magnetic beads (Dynal M-280, 0.125 mg/mL) were preincubated for 1 hour at room temperature before adding the assay plates. Assay plates were incubated on a shaker for 3 hours at room temperature and finally read in the Bioveris M8 Analyser according to the manufacturer's instructions (Bioveris).
IC50 values for inhibition of Aβ42 secretion were calculated by nonlinear regression fit analysis using XLfit 4.0 software (IDBS).

SMILES	EC50
Cn1cnc(S(=O)(=O)N2CCCC(c3ccc4[nH]c(C(=O)Nc5cc(F)cc(F)c5)cc4c3)C2)c1 (stereo not drawn) [Example 58, 5-[1-(1-Methyl-1H-imidazole-4-sulfonyl)-piperidin-3-yl]-1H-indole-2-carboxylic acid (3,5-difluoro-phenyl)-amide]	744 nM
CC(C)N1CCC(c2ccc3[nH]c(C(=O)Nc4ccc(C(C)(C)C)cc4)cc3c2)CC1 [Example 27, 5-(1-Isopropyl-piperidin-4-yl)-1H-indole-2-carboxylic acid (4-tert-butyl-phenyl)-amide]	8360 nM
C[C@@H](CN1CCCC1)c1ccc2[nH]c(C(=O)Nc3cccc(F)c3)cc2c1 [Example 119]	1730 nM
CC(c1ccc2[nH]c(C(=O)Nc3cc(F)cc(F)c3)cc2c1)N1CCCC1 (stereo not drawn) [Example 90, 5-(1-Pyrrolidin-1-yl-ethyl)-1H-indole-2-carboxylic acid (3,5-difluoro-phenyl)-amide]	877 nM
O=C(Nc1cc(F)cc(F)c1)c1cc2cc(C3CCNC3)ccc2[nH]1 (stereo not drawn) [Example 7, 5-Pyrrolidin-3-yl-1H-indole-2-carboxylic acid (3,5-difluoro-phenyl)-amide]	253 nM
CC(C)S(=O)(=O)N1CCCC(c2ccc3[nH]c(C(=O)Nc4cc(F)cc(F)c4)cc3c2)C1 (stereo not drawn) [Example 50, 5-[1-(Propane-2-sulfonyl)-piperidin-3-yl]-1H-indole-2-carboxylic acid (3,5-difluoro-phenyl)-amide]	202 nM
O=C(Nc1cccc(F)c1)c1cc2cc(C3CCN(Cc4ccccc4)C3)ccc2[nH]1 (stereo not drawn) [Example 3, 5-(1-Benzylpyrrolidin-3-yl)-N-(3-fluorophenyl)-1H-indole-2-carboxamide]	1240 nM
O=C(Nc1ccc(F)c(F)c1)c1cc2cc(C3CCCOC3)ccc2[nH]1 (stereo not drawn) [Example 86, 5-(Tetrahydro-pyran-3-yl)-1H-indole-2-carboxylic acid (3,4-difluoro-phenyl)-amide]	990 nM
C=C(c1ccc2[nH]c(C(=O)Nc3cc(F)cc(F)c3)cc2c1)C1CCN(Cc2ccccc2)C1 (stereo not drawn) [Example 91, 5-(1-(1-Benzylpyrrolidin-3-yl)vinyl)-N-(3,5-difluorophenyl)-1H-indole-2-carboxamide]	1490 nM
CC(C)N1CCN(c2ccc3[nH]c(C(=O)Nc4ccc(F)c(F)c4)cc3c2)CC1 [Example 63, 5-(4-Isopropyl-piperazin-1-yl)-1H-indole-2-carboxylic acid (3,4-difluoro-phenyl)-amide]	614 nM
O=C(Nc1cncc(F)c1)c1cc2cc(C3CCNC3)ccc2[nH]1 (stereo not drawn) [Example 75, N-(5-Fluoropyridin-3-yl)-5-(pyrrolidin-3-yl)-1H-indole-2-carboxamide]	1310 nM
CC(=O)N1CCC(C(C)c2ccc3[nH]c(C(=O)Nc4cc(F)cc(F)c4)cc3c2)C1 (stereo not drawn) [Example 95, 5-(1-(1-Acetylpyrrolidin-3-yl)ethyl)-N-(3,5-difluorophenyl)-1H-indole-2-carboxamide]	2480 nM
O=C(Nc1ccc(F)cc1)c1cc2cc(C3CCN(C(=O)c4ccccc4)CC3)ccc2[nH]1 [Example 35, 5-(1-Benzoyl-piperidin-4-yl)-1H-indole-2-carboxylic acid (4-fluoro-phenyl)-amide]	1390 nM
O=C(Nc1cc(F)cc(F)c1)c1cc2cc([C@@H]3CCN(CC(F)(F)F)C3)ccc2[nH]1 [Example 104, 5-[(S)-1-(2,2,2-Trifluoro-ethyl)-pyrrolidin-3-yl]-1H-indole-2-carboxylic acid (3,5-difluoro-phenyl)-amide]	528 nM
CN1CCC(c2ccc3[nH]c(C(=O)Nc4cc(F)cc(C#N)c4)cc3c2)C1 (stereo not drawn) [Example 6, N-(3-Cyano-5-fluorophenyl)-5-(1-methylpyrrolidin-3-yl)-1H-indole-2-carboxamide]	1420 nM
COCC(=O)N1CCC(c2ccc3[nH]c(C(=O)Nc4cncc(F)c4)cc3c2)C1 (stereo not drawn) [Example 82, N-(5-Fluoropyridin-3-yl)-5-(1-(2-methoxyacetyl)pyrrolidin-3-yl)-1H-indole-2-carboxamide]	1930 nM
CC(CCN1CCCCC1)c1ccc2[nH]c(C(=O)Nc3cc(F)cc(F)c3)cc2c1 (stereo not drawn) [Example 98, N-(3,5-Difluorophenyl)-5-(4-(piperidin-1-yl)butan-2-yl)-1H-indole-2-carboxamide]	1040 nM
CN1CCC(c2ccc3[nH]c(C(=O)Nc4ccc(F)cc4)cc3c2)CC1 [Example 36, 5-(1-Methyl-piperidin-4-yl)-1H-indole-2-carboxylic acid (4-fluoro-phenyl)-amide]	1090 nM
CC(C)C(=O)N1CC[C@H](c2ccc3[nH]c(C(=O)Nc4cc(F)cc(F)c4)cc3c2)C1 [Example 105, 5-((R)-1-Isobutyryl-pyrrolidin-3-yl)-1H-indole-2-carboxylic acid (3,5-difluoro-phenyl)-amide]	1210 nM
C[C@@H](c1ccc2[nH]c(C(=O)Nc3cc(F)cc(F)c3)cc2c1)[C@@H]1CCN(CC(F)(F)F)C1 [Example 120, N-(3,5-Difluorophenyl)-5-((R)-1-((S)-1-(2,2,2-trifluoroethyl)pyrrolidin-3-yl)ethyl)-1H-indole-2-carboxamide]	7420 nM
CC(C)C(=O)N1CC[C@@H](c2ccc3[nH]c(C(=O)Nc4cc(F)cc(F)c4)cc3c2)C1 [Example 106, 5-((S)-1-Isobutyryl-pyrrolidin-3-yl)-1H-indole-2-carboxylic acid (3,5-difluoro-phenyl)-amide]	889 nM

The remaining lines, values ahead:

EC50	SMILES
545 nM	O=C(Nc1cccc(F)c1)c1cc2cc([C@H]3CCCN(C4CC4)C3)ccc2[nH]1 [Example 116, (R)-5-(1-Cyclopropylpiperidin-3-yl)-N-(3-fluorophenyl)-1H-indole-2-carboxamide]
8150 nM	CC(C)N1CCC(c2ccc3[nH]c(C(=O)Nc4ccc(F)nc4)cc3c2)CC1 [Example 32, 5-(1-Isopropyl-piperidin-4-yl)-1H-indole-2-carboxylic acid (6-fluoro-pyridin-3-yl)-amide]
753 nM	C[C@H](CN1CCCC1)c1ccc2[nH]c(C(=O)Nc3cccc(F)c3)cc2c1 [Example 118]
926 nM	Cc1cc(F)cc(NC(=O)c2cc3cc(C4CCCN(C(C)C)C4)ccc3[nH]2)c1 (stereo not drawn) [Example 34, N-(3-Fluoro-5-methylphenyl)-5-(1-isopropylpiperidin-3-yl)-1H-indole-2-carboxamide]
519 nM	CC(C)N1CCC(c2ccc3[nH]c(C(=O)Nc4cccc(F)c4)cc3c2)C1 (stereo not drawn) [Example 14, N-(3-Fluorophenyl)-5-(1-isopropylpyrrolidin-3-yl)-1H-indole-2-carboxamide]
4360 nM	O=C(Nc1cccc(F)c1)c1cc2cc([C@@H]3CCCN(C4CC4)C3)ccc2[nH]1 [Example 117, (S)-5-(1-Cyclopropylpiperidin-3-yl)-N-(3-fluorophenyl)-1H-indole-2-carboxamide]
183 nM	CN1CCCC(c2ccc3[nH]c(C(=O)Nc4cc(F)cc(F)c4)cc3c2)C1 (stereo not drawn) [Example 59, 5-(1-Methyl-piperidin-3-yl)-1H-indole-2-carboxylic acid (3,5-difluoro-phenyl)-amide]
1110 nM	O=C(Nc1cccc(F)c1)c1cc2cc(C3CCCN(C4CC4)C3)ccc2[nH]1 (stereo not drawn) [Example 72, 5-(1-Cyclopropylpiperidin-3-yl)-N-(3-fluorophenyl)-1H-indole-2-carboxamide]
657 nM	O=C(Nc1cccc(F)c1)c1cc2cc(C3CCCN(CCO)C3)ccc2[nH]1 (stereo not drawn) [Example 67, N-(3-Fluorophenyl)-5-(1-(2-hydroxyethyl)piperidin-3-yl)-1H-indole-2-carboxamide]
832 nM	CC(C)N1CCC(c2ccc3[nH]c(C(=O)Nc4cccc(F)c4)cc3c2)CC1 [Example 20, 5-(1-Isopropyl-piperidin-4-yl)-1H-indole-2-carboxylic acid (3-fluoro-phenyl)-amide]
1500 nM	O=C(Nc1cccc(F)c1)c1cc2cc([C@@H]3CCCN(CCO)C3)ccc2[nH]1 [Example 115, (S)—N-(3-Fluorophenyl)-5-(1-(2-hydroxyethyl)piperidin-3-yl)-1H-indole-2-carboxamide]
977 nM	O=C(Nc1cccc(F)c1)c1cc2cc(C3CCCN(CC4CC4)C3)ccc2[nH]1 (stereo not drawn) [Example 71, 5-(1-(Cyclopropylmethyl)piperidin-3-yl)-N-(3-fluorophenyl)-1H-indole-2-carboxamide]
876 nM	CC(C)N1CCC[C@@H](c2ccc3[nH]c(C(=O)Nc4cccc(F)c4)cc3c2)C1 [Example 111, 5-((S)-1-Isopropyl-piperidin-3-yl)-1H-indole-2-carboxylic acid (3-fluoro-phenyl)-amide]

Same assay, conditions: human neuroglioma H4 cells overexpressing human APP, 22 hours incubation

EC50	SMILES
1710 nM	CC(C)S(=O)(=O)N1CCC(c2ccc3[nH]c(C(=O)Nc4cc(F)cc(F)c4)cc3c2)C1 (stereo not drawn) [Example 12, 5-[1-(Propane-2-sulfonyl)-pyrrolidin-3-yl]-1H-indole-2-carboxylic acid (3,5-difluoro-phenyl)-amide]
374 nM	CN1CC[C@H](c2ccc3[nH]c(C(=O)Nc4cc(F)cc(F)c4)cc3c2)C1 [Example 103, 5-((R)-1-Methyl-pyrrolidin-3-yl)-1H-indole-2-carboxylic acid (3,5-difluoro-phenyl)-amide]
